Results published in US20110190313A1, “Treatment of Pulmonary Arterial Hypertension” (priority 2008, published 2011).
Like-named read-outs stand apart in the source and are kept apart here.

How the values were obtained:
[1] = tested on: patients with severe pulmonary arterial hypertension; assay: Example 2 trial: 6-minute walk test (6MWD); assay type: in vivo, human; details: for 6MWD change vs. baseline, mean (SD): study end, patients with both baseline and end of study assessment
From the text: Secondary objectives included changes in hemodynamic variables, and in FC.
(§1) Patients (≧18 years) in FC II-IV with idiopathic or familial PAH, or PAH associated with systemic sclerosis or congenital heart disease (WHO group I) and PVR>300 dynes·sec·cm^−5 were eligible. Patients were on stable PAH medication(s) for >3 months before enrolment. Females of child-bearing potential used double-barrier contraception.
(§2) The primary efficacy outcome was the between-group difference in the 6MW distance (6MWD) at baseline and at 6 months. Complete hemodynamic parameters were assessed with standard techniques. FC was classified according to the WHO modification of the NYHA criteria for pulmonary hypertension.
(§3) Analyses were conducted within the intention-to-treat (ITT) population, which consisted of all patients who received at least one dose of study medication. Dropouts were excluded from the analysis The primary efficacy analysis (6MWD) was performed using analysis of covariance (ANCOVA) with baseline value as a covariate. ANCOVAs were also used to assess between-group differences in pulmonary hemodynamics and blood gases. Missing data were not imputed so only subjects with assessment both at baseline and post-treatment were included in the ANCOVA analysis. FC was compared using Fisher's test.

[2] = tested on: patients with severe pulmonary arterial hypertension; assay: Example 2 trial: pulmonary hemodynamics; assay type: in vivo, human
Method: as §1, §2, §3

[3] = tested on: patients with severe pulmonary arterial hypertension; assay: Example 2 trial: blood gases (oxygen saturation); assay type: in vivo, human
Method: as §3

[4] = tested on: patients with severe pulmonary arterial hypertension
[5] = end of study, with imatinib treatment

Cc1ccc(NC(=O)c2ccc(CN3CCN(C)CC3)cc2)cc1Nc1nccc(-c2cccnc2)n1 [imatinib]
6MWD treatment difference imatinib vs. placebo ([1]; ANCOVA of ITT population, p=0.21): 21.7 m | 6MWD change vs. baseline, mean (SD) [1]: +22±63 m | 6MWD change vs. baseline, mean (SD) ([1]; listed as Imatinib): 22 (63) m | PAPm, imatinib vs. placebo ([2]; 6 months, result in words): no significant difference | Cardiac output (CO) mean treatment difference vs. placebo ([2]; 6 months, 95% CI 0.10, 1.26, p=0.02): 0.68 L/min | PVR mean treatment difference vs. placebo ([2]; 6 months, 95% CI −383.7, −77.8, p=0.004): −230.7 dynes | Change between baseline and study end for PAPm, CO, PVR or 6MWD ([2]; post-hoc subgroup, baseline PVR<1,000 dynes·sec·cm^−5): no major differences | Change between baseline and study end for PAPm, CO, PVR and 6MWD compared with placebo ([2]; post-hoc subgroup, baseline PVR≧1,000 dynes·sec·cm^−5): substantial improvement | Systemic arterial oxygen saturation, mean treatment difference vs. placebo ([3]; 95% CI 0.5, 4.3): 2.4% | Mixed venous oxygen saturation, mean treatment difference vs. placebo ([3]; 95% CI 2.1, 11.9): 7.0% | Mixed venous oxygen saturation ([3]; baseline): 58±10% | Systemic arterial oxygen saturation ([3]; baseline): 88±9% | Mixed venous oxygen saturation [3, 5]: 65±7% | Systemic arterial oxygen saturation [3, 5]: 93±5% | Haemoglobin level (±SD) ([4]; after the fall with imatinib): 128 ± 16 g/L | Haemoglobin level (±SD) ([4]; before the fall (start value)): 151 ± 14 g/L | Deaths in group ([4]; during 6 month study): three | AE headache, number of patients ([4]; imatinib group): 10 | AE headache, percent of patients ([4]; imatinib group): 35.7% | AE nausea, percent of patients ([4]; imatinib group): 50% | AE peripheral edema, number of patients ([4]; imatinib group): 7 | AE peripheral edema, percent of patients ([4]; imatinib group): 25.0% | Patients reporting AEs of mild intensity, number ([4]; imatinib group): 21 | Patients reporting AEs of mild intensity, percent ([4]; imatinib group): 75% | Patients reporting AEs of moderate intensity, number ([4]; imatinib group): 20 | Patients reporting AEs of moderate intensity, percent ([4]; imatinib group): 71% | Patients reporting AEs of severe intensity, number ([4]; imatinib group): 9 | Patients reporting AEs of severe intensity, percent ([4]; imatinib group): 32% | Patients with rupture of the pulmonary artery (fatal) ([4]; imatinib group): One | Serious AEs (SAEs), number of recipients ([4]; imatinib group): 11 | Serious AEs (SAEs), percent of recipients ([4]; imatinib group): 39% | AE nausea, number of patients ([4]; imatinib group N = 28): 14 | Safety and tolerability in patients with PAH ([4]; over 6 months, result in words): safe and well tolerated | Changes over time in other laboratory variables (white blood cell count, platelet count, albumin, liver enzymes, creatinine, electrolytes etc.) ([4]; result in words): no relevant changes
